Patent EP4803080A1, “METHOD FOR TREATING LEUKEMIA” (Shenzhen TargetRx Co., Ltd., priority 2023, dated 2025)
Where “and” joins values, the source holds several entries; their conditions need not be identical. Identical values can stand only once. Like-named read-outs stand apart in the source and are kept apart here.

What was measured:
[1] = Study of blood-brain ratio after single oral dose; format: in vivo; settings: male SD rats
Procedure: A total of 15 male SD rats (3 per time point) were administered a single oral dose of Compound A via oral gavage at 50 mg/kg, with the vehicle being 0.5% sodium carboxymethyl cellulose (CMC-Na). The animals were not fasted. Whole blood, cerebrospinal fluid, and brain tissue were collected at 0.5, 2, 4, 8, and 24 hours post-dose. Whole blood samples (about 0.3 mL) were collected via puncture of the jugular venous sinus and transferred to dipotassium ethylenediaminetetraacetate (K2EDTA) anticoagulant tubes, mixed thoroughly, placed on wet ice, and centrifuged within 30 minutes for 5 minutes (6000 rpm, 4°C) to obtain plasma. Cerebrospinal fluid (about 0.10 mL) was collected via puncture of the cerebellomedullary cistern and placed in collection tubes. Brain tissue samples were rinsed with saline, dried with filter paper, blood vessels were removed, and the weight was weighed and recorded. Brain tissue was homogenized with 9 times its weight of homogenization buffer (30% MeOH, containing 0.2% FA/70% 10 mM PBS). All samples were stored in a freezer at -80°C or lower until LC-MS analysis. PK parameters were calculated using the non-compartmental model in WinNonlin and the compound concentrations in each matrix.

[2] = tested on: CML-CP with T315I mutation; assay: Phase I dose escalation and dose expansion clinical trial: efficacy in CML-CP subjects with T315I mutation; format: in vivo, humans
Excerpt: This study is a single-arm, open-label, dose-escalation and dose-expansion Phase I clinical trial.
The dose-escalation phase of this trial consists of about 8 dose groups, with oral administration under fasting conditions. Subjects in all dose groups will receive a single dose on Day 1 (D1), followed by pharmacokinetic (PK) and tolerability observations. […] After entering the multiple-dose period, subjects in the first dose group will initially receive twice-daily (BID) dosing (if PK data from the single-dose period are available, the dosing frequency during the multiple-dose period may be adjusted based on the PK data). The dosing frequency for subjects in subsequent dose groups after entering the multiple-dose period will be determined based on available PK and tolerability data. Throughout the trial, dosing frequency for all subjects may be adjusted based on continuously updated safety and PK data.
A continuous reassessment method (CRM) based on the principle of the escalation with overdose control (EWOC) design will be used to recommend the next specific dose for each dose escalation, thereby completing dose escalation and determining the maximum tolerated dose (MTD). If both the investigator and sponsor believe that higher dose groups may offer better efficacy and manageable safety, the EWOC-based CRM method may be used to explore higher doses. All enrolled subjects will receive long-term treatment with the test drug and undergo evaluations for safety, tolerability, and preliminary efficacy.
After obtaining certain research data from the dose-escalation phase, the investigator may comprehensively consider safety, efficacy, and other information to decide whether to enroll additional subjects at the MTD and/or lower dose levels to determine the recommended Phase II dose (RP2D). Two to four suitable dosing regimens will be selected for expansion in the target population (including subjects enrolled at the target dose levels during the escalation phase).
A total of 8 dose groups were established: 10 mg bid, 20 mg bid, 40 mg bid, 80 mg bid, 40 mg qd, 80 mg qd, 160 mg qd, and 240 mg qd.
The dose expansion phase was conducted in the following 3 cohorts: • Cohort 1: Subjects with chronic phase (CP) chronic myeloid leukemia (CML) who had previously received at least ≥2 different TKIs and were T315I-negative. A total of 3 dose groups were established: 40 mg qd, 80 mg qd, and 240 mg qd; • Cohort 2: Subjects with chronic phase (CP) chronic myeloid leukemia (CML) who have previously received ≥1 TKI and were T315I-positive. A total of 2 dose groups were established: 40 mg qd and 240 mg qd; • Cohort 3: Subjects with accelerated phase (AP) chronic myeloid leukemia (CML) who have previously received ≥1 TKI, regardless of T315I positivity. A total of 1 dose group was established: 240 mg qd.

[3] = PO 50 mg/kg single dose, 0.5 hr, individual rat, 50 mg/kg
[4] = PO 50 mg/kg single dose, 2 hr, individual rat, 50 mg/kg
[5] = PO 50 mg/kg single dose, 4 hr, individual rat, 50 mg/kg
[6] = PO 50 mg/kg single dose, 8 hr, individual rat, 50 mg/kg
[7] = PO 50 mg/kg single dose, 24 hr, individual rat, 50 mg/kg
[8] = CML-CP subjects with T315I mutation, all doses, 16 evaluable, as of August 24, 2023
[9] = CML-CP subjects with T315I mutation, as of August 24, 2023
[10] = CML-CP subjects with T315I mutation, as of June 2, 2024
[11] = CML-CP with T315I mutation, 10 mg BID, 0 evaluable subjects, as of August 24, 2023
[12] = CML-CP with T315I mutation, 20 mg BID, 1 evaluable subject, as of August 24, 2023
[13] = CML-CP with T315I mutation, 40 mg BID, 1 evaluable subject, as of August 24, 2023
[14] = CML-CP with T315I mutation, 40 mg QD, 2 evaluable subjects, as of August 24, 2023
[15] = CML-CP with T315I mutation, 40 mg/day Total, 3 evaluable subjects, as of August 24, 2023
[16] = CML-CP with T315I mutation, 80 mg BID, 1 evaluable subject, as of August 24, 2023
[17] = CML-CP with T315I mutation, 80 mg QD, 0 evaluable subjects, as of August 24, 2023
[18] = CML-CP with T315I mutation, 80 mg/day Total, 1 evaluable subject, as of August 24, 2023
[19] = CML-CP with T315I mutation, 160 mg QD, 1 evaluable subject, as of August 24, 2023
[20] = CML-CP with T315I mutation, 160 mg/day Total, 2 evaluable subjects, as of August 24, 2023
[21] = CML-CP with T315I mutation, 240 mg QD, 10 evaluable subjects, as of August 24, 2023
[22] = CML-CP with T315I mutation, Total, all dose groups, 16 evaluable subjects, as of August 24, 2023

O=C(Nc1ccc(OC(F)(F)Cl)cc1)c1cnc(N2CC[C@@H](F)C2)c(-c2cnccn2)c1 [Compound A, (R)-N-(4-(chlorodifluoromethoxy)phenyl)-6-(3-fluoropyrrolidin-1-yl)-5-(pyrazin-2-yl)nicotinamide]
Brain Concentration (ng/g) Concentration [1, 3]: 302 ng/g and 381 ng/g
Brain/Blood Ratio Individual Value [1, 3]: 0.376 and 0.578
Brain Concentration (ng/g) Concentration [1, 4]: 1360 ng/g and 1070 ng/g
Brain/Blood Ratio Individual Value [1, 4]: 0.410 and 0.502
Brain Concentration (ng/g) Concentration [1, 5]: 1190 ng/g and 1310 ng/g
Brain/Blood Ratio Individual Value [1, 5]: 0.478 and 0.466
Brain Concentration (ng/g) Concentration [1, 6]: 452 ng/g and 1700 ng/g and 994 ng/g
Brain/Blood Ratio Individual Value [1, 6]: 0.447 and 0.462
Brain Concentration (ng/g) Concentration [1, 7]: 40.4 ng/g and 10.2 ng/g
Brain/Blood Ratio Individual Value [1, 7]: 0.488 and 0.990
concentration at 0.5 h ([1]; male, SD, rat, brain, po, 50 mg/kg, PO 50 mg/kg single dose, 0.5 hr, individual rat, read-out: Brain Concentration (ng/g) Concentration): 415 ng/g
concentration at 0.5 h ([1]; male, SD, rat, brain, po, 50 mg/kg, PO 50 mg/kg single dose, 0.5 hr, mean of 3 rats, read-out: Brain Concentration (ng/g) Mean): 366 ng/g
concentration at 2 h ([1]; male, SD, rat, brain, po, 50 mg/kg, PO 50 mg/kg single dose, 2 hr, individual rat): 961 ng/g
concentration at 4 h ([1]; male, SD, rat, brain, po, 50 mg/kg, PO 50 mg/kg single dose, 4 hr, individual rat): 880 ng/g
concentration at 24 h ([1]; male, SD, rat, brain, po, 50 mg/kg, PO 50 mg/kg single dose, 24 hr, mean (one rat NA)): 16.9 ng/g
Kp at 0.5 h ([1]; male, SD, rat, brain/plasma, po, 50 mg/kg, PO 50 mg/kg single dose, 0.5 hr, individual rat): 0.624
Kp at 2 h ([1]; male, SD, rat, brain/plasma, po, 50 mg/kg, PO 50 mg/kg single dose, 2 hr, individual rat): 0.439
Kp at 4 h ([1]; male, SD, rat, brain/plasma, po, 50 mg/kg, PO 50 mg/kg single dose, 4 hr, individual rat): 0.374
Kp at 8 h ([1]; male, SD, rat, brain/plasma, po, 50 mg/kg, PO 50 mg/kg single dose, 8 hr, individual rat): 0.511
Kp ([1]; male, SD, rat, brain/plasma, po, 50 mg/kg, single oral dose 50 mg/kg, 0.5 to 24 hours, read-out: brain-to-plasma concentration ratio): 0.44 to 0.74
Cmax ([1]; rat, brain, single oral dose 50 mg/kg): 1130 ng/g
AUC0-last in the brain ([1]; single oral dose 50 mg/kg): 16346 ng·h/g
CHR ([2]; CML-CP subjects with T315I mutation, all doses, 13 evaluable, as of August 24, 2023): 92.3%
CCyR [2, 8]: 56.3%
MCyR [2, 8]: 62.5%
MMR ([2]; CML-CP subjects with T315I mutation, all doses, 17 evaluable, as of August 24, 2023): 35.3%
CHR within 3 treatment cycles ([2]; CML-CP subjects with T315I mutation, 20 evaluable, as of June 2, 2024): 80%
median time to CCyR [2, 9]: 2.83 (2.76, 2.92) months
median time to MCyR [2, 9]: 2.81 (2.76, 2.83) months
median time to MMR [2, 9]: 2.81 (2.76, 3.68) months
18-month cumulative incidence of CCyR [2, 10]: 69%
18-month cumulative incidence of MCyR [2, 10]: 76%
18-month cumulative incidence of MMR [2, 10]: 50%
CCyR [2, 11]: 0 n (%)
CHR [2, 11]: 0 n (%)
MCyR [2, 11]: 0 n (%)
MMR [2, 11]: 0 n (%)
CCyR [2, 12]: 1 (100) n (%)
CHR [2, 12]: 1 (100) n (%)
MCyR [2, 12]: 1 (100) n (%)
MMR [2, 12]: 0 n (%)
CCyR [2, 13]: 0 n (%)
CHR [2, 13]: 1 (100) n (%)
MCyR [2, 13]: 0 n (%)
MMR [2, 13]: 0 n (%)
CHR ([2]; CML-CP with T315I mutation, 40 mg QD, 0 evaluable subjects, as of August 24, 2023): 0 n (%)
CCyR [2, 14]: 2 (100) n (%)
MCyR [2, 14]: 2 (100) n (%)
MMR ([2]; CML-CP with T315I mutation, 40 mg QD, 3 evaluable subjects, as of August 24, 2023): 2 (66.7) n (%)
CHR ([2]; CML-CP with T315I mutation, 40 mg/day Total, 1 evaluable subject, as of August 24, 2023): 1 (100) n (%)
CCyR [2, 15]: 3 (100) n (%)
MCyR [2, 15]: 3 (100) n (%)
MMR ([2]; CML-CP with T315I mutation, 40 mg/day Total, 4 evaluable subjects, as of August 24, 2023): 2 (50.0) n (%)
CHR ([2]; CML-CP with T315I mutation, 80 mg BID, 0 evaluable subjects, as of August 24, 2023): 0 n (%)
CCyR [2, 16]: 1 (100) n (%)
MCyR [2, 16]: 1 (100) n (%)
MMR [2, 16]: 1 (100) n (%)
CCyR [2, 17]: 0 n (%)
CHR [2, 17]: 0 n (%)
MCyR [2, 17]: 0 n (%)
MMR [2, 17]: 0 n (%)
CCyR [2, 18]: 0 n (%)
CHR [2, 18]: 1 (100) n (%)
MCyR [2, 18]: 0 n (%)
MMR [2, 18]: 0 n (%)
CCyR [2, 19]: 1 (100) n (%)
CHR [2, 19]: 1 (100) n (%)
MCyR [2, 19]: 1 (100) n (%)
MMR [2, 19]: 1 (100) n (%)
CHR ([2]; CML-CP with T315I mutation, 160 mg/day Total, 1 evaluable subject, as of August 24, 2023): 1 (100) n (%)
CCyR [2, 20]: 2 (100) n (%)
MCyR [2, 20]: 2 (100) n (%)
MMR [2, 20]: 2 (100) n (%)
CCyR [2, 21]: 4 (40.0) n (%)
CHR [2, 21]: 9 (90.0) n (%)
MCyR [2, 21]: 5 (50.0) n (%)
MMR [2, 21]: 2 (20.0) n (%)
CHR ([2]; CML-CP with T315I mutation, Total, all dose groups, 13 evaluable subjects, as of August 24, 2023): 12 (92.3) n (%)
CCyR [2, 22]: 9 (56.3) n (%)
MCyR [2, 22]: 10 (62.5) n (%)
MMR ([2]; CML-CP with T315I mutation, Total, all dose groups, 17 evaluable subjects, as of August 24, 2023): 6 (35.3) n (%)
